Data from the supplement of paper PMC10307832.

How the values were obtained:
Assay in all cases: relative viability (nuclei count vs DMSO), 5 days (fraction); higher = more cells survive
201T = test system: 201T
In short: (§1)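 Dosing by pin tool came one day after lung cancer cell lines were seeded in 1536-well plates, using either one drug or a fixed anchor-drug dose plus five library-drug doses (not always all listed) in √10 steps. After 5 days, nuclei were counted on 4× images. Relative viability is treated-well nuclei count divided by vehicle-well nuclei count, and values are medians of duplicate plates.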

COR-L 105 = test system: COR-L 105
In short: as §1

NCI-H460 = test system: NCI-H460
In short: as §1

NCI-H3122 = test system: NCI-H3122
In short: as §1

LK-2 = test system: LK-2
In short: as §1

NCI-H1437 = test system: NCI-H1437
In short: as §1

NCI-H727 = test system: NCI-H727
In short: as §1

CAL-12T = test system: CAL-12T
In short: as §1

NCI-H1666 = test system: NCI-H1666
In short: as §1

HARA = test system: HARA
In short: as §1

NCI-H2009 = test system: NCI-H2009
In short: as §1

EKVX = test system: EKVX
In short: as §1

HCC-366 = test system: HCC-366
In short: as §1

ABC-1 = test system: ABC-1
In short: as §1

NCI-H441 = test system: NCI-H441
In short: as §1

PC-14 = test system: PC-14
In short: as §1

BEN = test system: BEN
In short: as §1

NCI-H661 = test system: NCI-H661
In short: as §1

LOU-NH91 = test system: LOU-NH91
In short: as §1

SMILES: O=c1cc(-c2cccc3c2Sc2ccccc2S3)oc(N2CCOCC2)c1 + C[C@]1(O)C[C@@H](c2nc(-c3ccc4ccc(-c5ccccc5)nc4c3)c3c(N)nccn32)C1 [Linsitinib] (partner 1 µM)
- relative viability (201T; first compound 0.08 µM): 0.99
- relative viability (201T; first compound 0.253 µM): 1.04
- relative viability (201T; first compound 0.8 µM): 0.929
- relative viability (201T; first compound 2.53 µM): 0.974
- relative viability (201T; first compound 8 µM): 0.986
- relative viability (COR-L 105; first compound 0.08 µM): 0.771
- relative viability (COR-L 105; first compound 0.253 µM): 1.11
- relative viability (COR-L 105; first compound 0.8 µM): 0.823
- relative viability (COR-L 105; first compound 2.53 µM): 0.958
- relative viability (COR-L 105; first compound 8 µM): 1.07
- relative viability (NCI-H460; first compound 0.08 µM): 0.991
- relative viability (NCI-H460; first compound 0.253 µM): 0.997
- relative viability (NCI-H460; first compound 0.8 µM): 1.08
- relative viability (NCI-H460; first compound 2.53 µM): 0.796
- relative viability (NCI-H460; first compound 8 µM): 0.791
- relative viability (NCI-H3122; first compound 0.08 µM): 1.07
- relative viability (NCI-H3122; first compound 0.253 µM): 1.16
- relative viability (NCI-H3122; first compound 0.8 µM): 1.06
- relative viability (NCI-H3122; first compound 2.53 µM): 0.99
- relative viability (NCI-H3122; first compound 8 µM): 1.07
- relative viability (LK-2; first compound 0.08 µM): 0.64
- relative viability (LK-2; first compound 0.253 µM): 0.527
- relative viability (LK-2; first compound 0.8 µM): 0.549
- relative viability (LK-2; first compound 2.53 µM): 0.533
- relative viability (LK-2; first compound 8 µM): 0.651
- relative viability (NCI-H1437; first compound 0.08 µM): 1.12
- relative viability (NCI-H1437; first compound 0.253 µM): 1.49
- relative viability (NCI-H1437; first compound 0.8 µM): 1.15
- relative viability (NCI-H1437; first compound 2.53 µM): 0.997
- relative viability (NCI-H1437; first compound 8 µM): 1.12
- relative viability (NCI-H727; first compound 0.253 µM): 0.284
- relative viability (NCI-H727; first compound 2.53 µM): 0.314
- relative viability (NCI-H727; first compound 8 µM): 0.304
- relative viability (CAL-12T; first compound 0.08 µM): 0.73
- relative viability (CAL-12T; first compound 0.253 µM): 0.861
- relative viability (CAL-12T; first compound 0.8 µM): 0.899
- relative viability (CAL-12T; first compound 2.53 µM): 0.77
- relative viability (CAL-12T; first compound 8 µM): 0.503
- relative viability (NCI-H1666; first compound 0.08 µM): 0.827
- relative viability (NCI-H1666; first compound 0.253 µM): 0.946
- relative viability (NCI-H1666; first compound 0.8 µM): 0.545
- relative viability (NCI-H1666; first compound 2.53 µM): 0.738
- relative viability (NCI-H1666; first compound 8 µM): 0.805
- relative viability (HARA; first compound 0.08 µM): 1.01
- relative viability (HARA; first compound 0.253 µM): 1.2
- relative viability (HARA; first compound 0.8 µM): 1.08
- relative viability (HARA; first compound 2.53 µM): 0.948
- relative viability (HARA; first compound 8 µM): 0.743
- relative viability (NCI-H2009; first compound 0.08 µM): 1.17
- relative viability (NCI-H2009; first compound 0.253 µM): 1.22
- relative viability (NCI-H2009; first compound 0.8 µM): 1.19
- relative viability (NCI-H2009; first compound 2.53 µM): 1.12
- relative viability (NCI-H2009; first compound 8 µM): 1.11
- relative viability (EKVX; first compound 0.08 µM): 1.17
- relative viability (EKVX; first compound 0.253 µM): 1.13
- relative viability (EKVX; first compound 0.8 µM): 0.818
- relative viability (EKVX; first compound 2.53 µM): 1.02
- relative viability (EKVX; first compound 8 µM): 0.935
- relative viability (HCC-366; first compound 0.08 µM): 0.605
- relative viability (HCC-366; first compound 0.253 µM): 1.07
- relative viability (HCC-366; first compound 0.8 µM): 0.711
- relative viability (HCC-366; first compound 2.53 µM): 0.744
- relative viability (HCC-366; first compound 8 µM): 0.573
- relative viability (ABC-1; first compound 0.08 µM): 0.627
- relative viability (ABC-1; first compound 0.253 µM): 1.02
- relative viability (ABC-1; first compound 0.8 µM): 0.717
- relative viability (ABC-1; first compound 2.53 µM): 0.711
- relative viability (ABC-1; first compound 8 µM): 0.954
- relative viability (NCI-H441; first compound 0.08 µM): 0.549
- relative viability (NCI-H441; first compound 0.253 µM): 0.619
- relative viability (NCI-H441; first compound 0.8 µM): 0.759
- relative viability (NCI-H441; first compound 2.53 µM): 0.584
- relative viability (NCI-H441; first compound 8 µM): 0.632
- relative viability (PC-14; first compound 0.08 µM): 1.02
- relative viability (PC-14; first compound 0.253 µM): 1.07
- relative viability (PC-14; first compound 0.8 µM): 0.966
- relative viability (PC-14; first compound 2.53 µM): 0.92
- relative viability (PC-14; first compound 8 µM): 0.948
- relative viability (BEN; first compound 0.08 µM): 0.996
- relative viability (BEN; first compound 0.253 µM): 1.04
- relative viability (BEN; first compound 0.8 µM): 1.14
- relative viability (BEN; first compound 2.53 µM): 0.898
- relative viability (BEN; first compound 8 µM): 1.23
- relative viability (NCI-H661; first compound 0.08 µM): 0.507
- relative viability (NCI-H661; first compound 0.253 µM): 0.473
- relative viability (NCI-H661; first compound 0.8 µM): 0.55
- relative viability (NCI-H661; first compound 2.53 µM): 0.527
- relative viability (NCI-H661; first compound 8 µM): 0.591
- relative viability (LOU-NH91; first compound 0.08 µM): 0.946
- relative viability (LOU-NH91; first compound 0.253 µM): 0.923
- relative viability (LOU-NH91; first compound 0.8 µM): 0.845
- relative viability (LOU-NH91; first compound 2.53 µM): 0.769
- relative viability (LOU-NH91; first compound 8 µM): 0.893
